US20230113037A1 (Bayer Aktiengesellschaft, priority 2019, published 2023)
Several values for one entry are separate records, joined by “and”; a condition that tells them apart may be missing. Equal values may be shown once. Read-outs that look alike come from different tables or passages of the source.

How the values were obtained:
[1] = biological target: T1, AHR (Homo sapiens, UniProt P35869); experiment: In vitro assay 1: antagonism in human cell line (AHR transactivation, firefly luciferase reporter, kynurenic acid prestimulated); assay type: cell-based; settings: AHR Antagonism Human IC50 [M]
T1 construct: U87 MG glioblastoma cells (ATCC #HTB-14) endogenously expressing AHR; endogenous in cells; host or cells: U87 MG glioblastoma cells (ATCC #HTB-14)
T1 sequence (P35869 11-848): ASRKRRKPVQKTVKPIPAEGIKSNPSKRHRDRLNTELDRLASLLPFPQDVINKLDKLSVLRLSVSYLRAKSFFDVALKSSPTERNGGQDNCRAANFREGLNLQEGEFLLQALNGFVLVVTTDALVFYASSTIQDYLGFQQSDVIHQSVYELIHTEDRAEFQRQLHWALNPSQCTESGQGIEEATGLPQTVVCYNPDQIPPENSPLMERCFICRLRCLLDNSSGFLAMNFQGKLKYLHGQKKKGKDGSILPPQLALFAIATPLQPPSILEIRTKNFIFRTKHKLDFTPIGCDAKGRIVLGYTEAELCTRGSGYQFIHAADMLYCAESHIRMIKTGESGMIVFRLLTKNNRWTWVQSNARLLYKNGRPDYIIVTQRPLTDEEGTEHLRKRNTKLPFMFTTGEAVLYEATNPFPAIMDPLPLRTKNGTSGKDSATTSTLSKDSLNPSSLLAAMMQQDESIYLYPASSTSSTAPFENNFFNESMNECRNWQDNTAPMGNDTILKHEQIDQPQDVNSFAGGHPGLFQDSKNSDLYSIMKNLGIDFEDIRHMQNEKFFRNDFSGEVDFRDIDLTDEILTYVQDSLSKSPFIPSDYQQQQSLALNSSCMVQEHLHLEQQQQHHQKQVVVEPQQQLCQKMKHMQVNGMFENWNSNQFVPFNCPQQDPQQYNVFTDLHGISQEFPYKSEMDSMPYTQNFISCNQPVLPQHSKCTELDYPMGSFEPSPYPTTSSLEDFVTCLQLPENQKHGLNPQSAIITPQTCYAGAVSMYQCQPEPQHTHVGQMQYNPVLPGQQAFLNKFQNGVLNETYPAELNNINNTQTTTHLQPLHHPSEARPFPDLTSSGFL
In short: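 Antagonism measured as loss of kynurenic acid-driven firefly luciferase from DRE reporter in stably transfected U87 MG cells; constitutive Renilla signal monitors cytotoxicity. Positive/negative control normalization, staurosporine 5 μM with 150 μM kynurenic acid as inhibition control; replicates given as mean or median.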

[2] = biological target: T2, AHR (Mus musculus, UniProt P30561); experiment: In vitro assay 3: antagonism in mouse cell line (AHR transactivation, firefly luciferase reporter, kynurenic acid prestimulated); assay type: cell-based
T2 sequence (P30561 1-848 P471L/N533S/M589L): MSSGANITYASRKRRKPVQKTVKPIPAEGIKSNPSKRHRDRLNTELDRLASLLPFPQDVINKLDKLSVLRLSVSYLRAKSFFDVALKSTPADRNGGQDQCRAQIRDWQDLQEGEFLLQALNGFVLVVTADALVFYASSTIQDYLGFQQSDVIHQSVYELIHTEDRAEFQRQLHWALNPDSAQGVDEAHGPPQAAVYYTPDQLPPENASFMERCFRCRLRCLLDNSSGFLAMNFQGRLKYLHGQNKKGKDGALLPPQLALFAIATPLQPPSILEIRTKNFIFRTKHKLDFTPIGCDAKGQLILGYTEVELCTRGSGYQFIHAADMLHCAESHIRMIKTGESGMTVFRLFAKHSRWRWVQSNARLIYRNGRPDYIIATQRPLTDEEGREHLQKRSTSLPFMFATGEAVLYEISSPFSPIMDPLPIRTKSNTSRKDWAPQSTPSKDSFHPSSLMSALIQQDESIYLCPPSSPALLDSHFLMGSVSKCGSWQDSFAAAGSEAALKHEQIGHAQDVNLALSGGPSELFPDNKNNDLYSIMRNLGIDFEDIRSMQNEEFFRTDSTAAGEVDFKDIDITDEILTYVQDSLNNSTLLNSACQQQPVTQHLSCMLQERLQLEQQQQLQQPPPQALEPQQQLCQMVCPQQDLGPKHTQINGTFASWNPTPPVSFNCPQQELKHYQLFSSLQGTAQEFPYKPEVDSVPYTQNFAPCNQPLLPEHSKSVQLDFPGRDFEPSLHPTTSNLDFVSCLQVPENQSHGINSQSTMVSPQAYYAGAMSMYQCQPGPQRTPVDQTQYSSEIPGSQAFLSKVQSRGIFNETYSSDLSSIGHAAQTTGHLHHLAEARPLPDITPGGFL
In short: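 Luminescence from an AHR-dependent DRE-luciferase reporter, stably integrated in mouse cells, quantifies blockade of kynurenic acid-driven activation. Unstimulated cells mark maximal inhibition; normalization uses both control types, and multiply tested compounds carry mean or median values.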

[3] = mouse Hepa 1c1c7 cells, 200 μM kynurenic acid, 20 hours, read-out: AHR Antagonism Mouse IC50
[4] = Hepa 1c1c7 cells, 200 μM kynurenic acid, 20 hours, firefly luciferase reporter, read-out: AHR Antagonism Mouse IC50

SMILES | IC50 [1] | IC50 [2, 3] | IC50 ([1]; firefly luciferase reporter) | IC50 [2, 4] | IC50 ([2]; read-out: AHR Antagonism Mouse IC50, mouse Hepa 1c1c7 cells, 200 μM kynurenic acid, 20 hours)
CC[C@@H](Nc1nc2c(Br)cccc2c2nc(-c3ccc(OC)cc3OC(F)(F)F)nn12)C(N)=O [Example 567, (2R)-2-({7-bromo-2-[4-methoxy-2-(trifluoromethoxy)phenyl][1,2,4]triazolo[1,5-c]quinazolin-5-yl}amino)butanamide] | 1.21e-08 M | – | – | – | 3.05 nM
COc1ccc(-c2nc3c4cccc(N5CCOCC5)c4nc(N[C@@H]4CCCCNC4=O)n3n2)cc1 [Example 654, (3R)-3-{[2-(4-methoxyphenyl)-7-(morpholin-4-yl)[1,2,4]triazolo[1,5-c]quinazolin-5-yl]amino}azepan-2-one] | 1.03e-07 M | 221 nM | – | – | –
CC(C)[C@@H](Nc1nc2c(Br)cccc2c2nc(-c3cnn(C)c3)nn12)C(=O)N1CCOCC1 [Example 926, (2R)-2-{[7-bromo-2-(1-methyl-1H-pyrazol-4-yl)[1,2,4]triazolo[1,5-c]quinazolin-5-yl]amino}-3-methyl-1-(morpholin-4-yl)butan-1-one] | – | – | 3.45e-08 M | 6.16 nM | –
O=C1NCCCC[C@H]1Nc1nc2c(C(F)(F)F)cccc2c2nc(-c3cn[nH]c3)nn12 [Example 677, (3R)-3-{[2-(1H-pyrazol-4-yl)-7-(trifluoromethyl)[1,2,4]triazolo[1,5-c]quinazolin-5-yl]amino}azepan-2-one] | 1.33e-08 M | 53.1 nM | – | – | –
COc1ccc(-c2nc3c4c(C5COC5)cccc4nc(N[C@@H]4CCCCNC4=O)n3n2)cc1 [Example 396, (3R)-3-{[2-(4-methoxyphenyl)-10-(oxetan-3-yl)[1,2,4]triazolo[1,5-c]quinazolin-5-yl]amino}azepan-2-one] | 1.12e-08 M | 21.6 nM | – | – | –
O=C1NCCCC[C@H]1Nc1nc2c(C(F)(F)F)cccc2c2nc(-c3cnn(C4CCC4)c3)nn12 [Example 741, (3R)-3-{[2-(1-cyclobutyl-1H-pyrazol-4-yl)-7-(trifluoromethyl)[1,2,4]triazolo[1,5-c]quinazolin-5-yl]amino}azepan-2-one] | 7.02e-10 M | 1.41 nM | – | – | –
O=C1NCCCC[C@H]1Nc1nc2c(C(F)(F)F)cccc2c2nc(-c3cc[nH]n3)nn12 [Example 737, (3R)-3-{[2-(1H-pyrazol-3-yl)-7-(trifluoromethyl)[1,2,4]triazolo[1,5-c]quinazolin-5-yl]amino}azepan-2-one] | 7.64e-09 M | 15.1 nM | – | – | –
O=C1NCCCC[C@H]1Nc1nc2c(C(F)(F)F)cccc2c2nc(-c3ccc(Cl)cc3OC(F)F)nn12 [Example 673, (3R)-3-({2-[4-chloro-2-(difluoromethoxy)phenyl]-7-(trifluoromethyl)[1,2,4]triazolo[1,5-c]quinazolin-5-yl}amino)azepan-2-one] | > 2e-05 M | 1.57 nM | – | – | –
O=C1NCCCC[C@H]1Nc1nc2c(Br)cccc2c2nc(-c3cnn(CC4CC4)c3)nn12 [Example 826, (3R)-3-({7-bromo-2-[1-(cyclopropylmethyl)-1H-pyrazol-4-yl][1,2,4]triazolo[1,5-c]quinazolin-5-yl}amino)azepan-2-one] | – | – | 1.77e-09 M | 2.26 nM | –
O=C1NCCCC[C@H]1Nc1nc2ccccc2c2nc(-c3cc(C(F)(F)F)cc(C(F)(F)F)c3)nn12 [Example 359, (3R)-3-({2-[3,5-Bis(trifluoromethyl)phenyl][1,2,4]triazolo[1,5-c]quinazolin-5-yl}amino)azepan-2-one] | > 2e-05 M | 93.4 nM | – | – | –

The next lines start with results.

IC50 [1] | IC50 [2, 3] | IC50 ([1]; firefly luciferase reporter) | IC50 [2, 4] | SMILES | IC50 ([2]; read-out: AHR Antagonism Mouse IC50, mouse Hepa 1c1c7 cells, 200 μM kynurenic acid, 20 hours)
1.36e-07 M | 29.3 nM | – | – | CCCCNC(=O)[C@H](C)Nc1nc2ccccc2c2nc(-c3cccc(C#N)c3)nn12 [Example 441, N-butyl-N^2-[2-(3-cyanophenyl)[1,2,4]triazolo[1,5-c]quinazolin-5-yl]alaninamide] | –
7.64e-09 M | 1.25 nM | – | – | CC[C@@H](Nc1nc2ccccc2c2nc(-c3cccc(C#N)c3)nn12)C(N)=O [Example 382, (2R)-2-{[2-(3-cyanophenyl)[1,2,4]triazolo[1,5-c]quinazolin-5-yl]amino}butanamide] | –
5.81e-07 M | 2120 nM | – | – | CN(C)CCn1cc(-c2nc3c4ccccc4nc(N[C@@H]4CCCCNC4=O)n3n2)cn1 [Example 599, (3R)-3-[(2-{1-[2-(dimethylamino)ethyl]-1H-pyrazol-4-yl}[1,2,4]triazolo[1,5-c]quinazolin-5-yl)amino]azepan-2-one] | –
> 2e-05 M | 5510 nM and > 5710 nM | – | – | COc1cccc(-c2nc3c4ccccc4nc(N[C@@H](CCCCN)C(N)=O)n3n2)c1 [Example 114, N^2-[2-(3-methoxyphenyl)[1,2,4]triazolo[1,5-c]quinazolin-5-yl]-L-lysinamide] | –
4.3e-09 M | 5.96 nM | – | – | COc1ccc(-c2nc3c4ccccc4nc(N[C@H](C)C(=O)NCCN4CCOCC4)n3n2)cc1 [Example 779, N^2-[2-(4-methoxyphenyl)[1,2,4]triazolo[1,5-c]quinazolin-5-yl]-N-[2-(morpholin-4-yl)ethyl]-D-alaninamide] | –
2.9e-07 M | 130 nM | – | – | CCCCNC(=O)CNc1nc2ccccc2c2nc(-c3ccc(S(C)(=O)=O)cc3)nn12 [Example 438, N-butyl-N^2-{2-[4-(methanesulfonyl)phenyl][1,2,4]triazolo[1,5-c]quinazolin-5-yl}glycinamide] | –
> 2e-05 M | 188 nM | – | – | CC[C@H](Nc1nc2ccccc2c2nc(-c3ccc(OC)cc3C(F)(F)F)nn12)C(N)=O [Example 514, (2S)-2-({2-[4-methoxy-2-(trifluoromethyl)phenyl][1,2,4]triazolo[1,5-c]quinazolin-5-yl}amino)butanamide] | –
2.54e-07 M | 1020 nM | – | – | COc1cccc(-c2nc3c4c(C)cccc4nc(N[C@H]4CCCNC4=O)n3n2)c1 [Example 182, (3S)-3-{[2-(3-methoxyphenyl)-10-methyl[1,2,4]triazolo[1,5-c]quinazolin-5-yl]amino}piperidin-2-one] | –
5.71e-09 M | 1.82 nM | – | – | N#Cc1cccc2nc(N[C@@H]3CCCCNC3=O)n3nc(-c4ccc(F)cc4)nc3c12 [Example 248, 2-(4-fluorophenyl)-5-{[(3R)-2-oxoazepan-3-yl]amino}[1,2,4]triazolo[1,5-c]quinazoline-10-carbonitrile] | –
> 2e-05 M | 2970 nM | – | – | O=C1NCC[C@H]1Nc1nc2ccccc2c2nc(-c3cc(Cl)ccc3OC(F)(F)F)nn12 [Example 500, (3R)-3-({2-[5-chloro-2-(trifluoromethoxy)phenyl][1,2,4]triazolo[1,5-c]quinazolin-5-yl}amino)pyrrolidin-2-one] | –
7.2e-09 M | 6.63 nM | – | – | COc1ccc(-c2nc3c4ccccc4nc(N[C@@H]4CCCCNC4=O)n3n2)cc1C(F)(F)F [Example 722, (3R)-3-({2-[4-methoxy-3-(trifluoromethyl)phenyl][1,2,4]triazolo[1,5-c]quinazolin-5-yl}amino)azepan-2-one] | –
